Data set [1] in a line: Cyclic voltammetry of Fe-EDDHA complexes in unbuffered 0.1 M NaClO4.
Method: In order to minimize undesired ligand exchange reactions and solely observe the effect of pH on the redox properties, 0.1 M NaClO4 was chosen as electrolyte for the first set of experiments.
(§1) A Pt rod served as counter electrode, potentials refer to a (Ag/AgCl, 1 M NaCl) reference electrode. For each CV experiment at the mercury electrode, nine single measurements were recorded and averaged in order to minimize errors originating from drop size fluctuations. Copper electrodes were precleaned with 6 M HNO3 before use and equilibrated in electrolyte solution by running repetitive cycles. The planar glassy carbon electrode (Metrohm, 5 mm diameter) was polished on a polishing micro cloth (Buehler) with 0.05 μM alumina (Buehler) to a mirror like finish between the measurement series.
The conditions of data set [2]: literature (Yunta et al. 2003); in M-1·cm-1 (unit assumed); cited from earlier work.
Data set [3] in a line: Diffusion coefficients of ferric complexes from voltammetry. The format is physicochemical. Particulars: pH 9, borate buffer, this work. The procedure: The experiments also permit calculation of the diffusion coefficients (five solutions in the concentration range between 0.3 and 0.8 mM) (Table 3). Literature values for the Fe^3+ diffusion coefficient range from 3.3-6.5×10^−6 cm^2/s in acidic media to 8.6×10^−6 cm^2/s complexed as K3Fe(CN)6 in strongly basic media.

Data set [4] is described as follows: Molar absorptivity at 480 nm in borate buffer pH 9. The format is physicochemical. Particulars: borate buffer pH 9, five repetitions; in M-1·cm-1 (unit assumed). The method, then:
The molar absorptivity was determined in borate buffer solutions at pH 9 (five repetitions). To define the exact complex concentration an understoichiometric amount of ferric iron was used and the excess of free ligand was tolerated, as the ligand is not electroactive.

A short description of data set [5]: Cyclic voltammetry in borate buffer at Hg/Cu/GC electrodes. Particulars: for E1/2 / ipa/ipc / jpc (peak current density) / ΔEp: 0.5 mM, 50 mM borate buffer pH 9, 0.1M NaClO4.
Method: as §1
To avoid disturbing influences of local changes in pH within the diffusion layer of the electrodes, cyclic voltammetry with use of buffered solutions was performed.
A 100 mM NaClO4 background supporting electrolyte was used to maintain diffusion limited conditions and high solution conductivity. 50 mM boric acid was added to the NaClO4 supporting electrolyte and adjusted with NaOH to the desired pH value.
For data set [6] the following is noted: cited from earlier work.
[7] abbreviates: 0.5 mM, unbuffered 0.1M NaClO4, pH 9, Hg electrode.
Setting [8] is: 0.5 mM, unbuffered 0.1M NaClO4, pH 9, Hg electrode, vs Ag/AgCl 1 M NaCl.

Read-outs that look alike come from different tables or passages of the source. A value given as a limit tells only on which side of the number the result lay.

In data set [1] (setting [7]), `O=C([O-])C(NCCNC(C(=O)[O-])c1ccccc1[O-])c1ccccc1[O-].[Fe+3]` (stereo not shown) [Fe-mesoEDDHA] yielded an ipa of 255 nA, an ipa/ipc of 0.93, an ipc of −275 nA and a ΔEP of 72 mV. In data set [1] (setting [8]), the E1/2 is on record as −621 mV, the Epa was −585 mV and the Epc was −657 mV. The “pH range in which the voltammograms were independent on pH” value in data set [1] (unbuffered 0.1 M NaClO4) is 6-9. Besides, the “pH above which the complex hydrolyses” value in data set [1] (without buffer) was over 9. Moreover, in data set [2], the “Molar absorptivity (ε480 nm), lit.” value is given as 4574 ± 53. Further, in data set [3], the “Diffusion coefficient Do” value is on record as 5.78 10^−6 cm^2/s. The “Molar absorptivity (ε480 nm), this work” value in data set [4] is given as 4546 ± 120. In data set [5] (Cu electrode), the E1/2 is −619 mV, the ipa/ipc is 1.06, the “jpc (peak current density)” value is given as 520 nA/mm^2 and the ΔEp stood at 132 mV. In addition, in data set [5] (GC electrode), the E1/2 is −616 mV, the ipa/ipc was 0.94 1, the “jpc (peak current density)” value came out at 817 nA/mm^2 and the ΔEp came out at 67 mV. Further, in data set [5] (Hg electrode), the E1/2 was −615 mV, the ipa/ipc is on record as 0.93 1, the “jpc (peak current density)” value came out at 1167 nA/mm^2 and the ΔEp amounted to 64 mV. Also, the “slope of E1/2 vs pH” value in data set [5] (borate buffered solution, below pH 8 (racemic) / below pH 9 (meso)) was −38 mV/pH. This compound also showed a redox potential in data set [5] (pH 9, vs Ag/AgCl 1 M NaCl reference electrode) of −615 mV.
Turning to `[Fe+3]` [Fe^3+], in data set [6] (acidic media), the “Diffusion coefficient, literature values” is 3.3-6.5 ×10^−6 cm^2/s. In data set [6] (pH 0-1, source a (literature)), the “Diffusion coefficient Do” value is 3.3-6.5 10^−6 cm^2/s.

(Values after patent US12489120B2, “Redox flow battery” (ELECTROCHEM, S.L., priority 2019, dated 2025).)
